According to US20190315771A1, “NOVEL 2-ACYLAMINOTHIAZOLE DERIVATIVE AND PREPARATION METHOD THEREFOR AND USE THEREOF” (SICHUAN KELUN-BIOTECH BIOPHARMACEUTICAL CO., LTD., priority 2016, published 2019):

Experiments:
human TPOR = molecular target: T1, human TPOR (Homo sapiens, UniProt P40238); test: Proliferation of BAF3/TPOR cells (MTS method, OD490); assay type: cell-based, mouse; conditions: BAF3 cells stably expressing human TPOR, cultured with compound 24 h
T1 construct: expressed in transfected cells; host or cells: mouse BAF3 cells
T1 sequence (P40238 26-635): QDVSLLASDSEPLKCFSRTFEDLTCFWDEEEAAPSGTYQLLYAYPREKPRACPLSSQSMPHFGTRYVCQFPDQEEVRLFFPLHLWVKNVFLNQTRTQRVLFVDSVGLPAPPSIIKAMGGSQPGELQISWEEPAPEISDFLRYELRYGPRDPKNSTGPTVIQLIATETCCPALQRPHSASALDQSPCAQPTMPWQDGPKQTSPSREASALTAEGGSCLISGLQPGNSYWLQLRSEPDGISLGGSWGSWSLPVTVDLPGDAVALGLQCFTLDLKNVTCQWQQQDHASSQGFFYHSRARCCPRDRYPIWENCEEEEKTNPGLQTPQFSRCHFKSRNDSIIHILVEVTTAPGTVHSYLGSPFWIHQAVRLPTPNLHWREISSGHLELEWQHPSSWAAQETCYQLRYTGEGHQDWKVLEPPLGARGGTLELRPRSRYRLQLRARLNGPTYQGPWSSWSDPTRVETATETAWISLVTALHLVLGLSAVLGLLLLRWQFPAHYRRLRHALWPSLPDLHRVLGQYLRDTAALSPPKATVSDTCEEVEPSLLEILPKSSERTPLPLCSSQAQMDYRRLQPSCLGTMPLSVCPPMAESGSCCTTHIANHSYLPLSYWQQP
Excerpt: The TPO mimetic compound was synthesized in vitro, and the compound acted on the TPO receptor (TPOR) on the cell to stimulate cell proliferation and differentiation. The OD490 value was detected by the MTS method, and the more the number of cells, the larger the OD value, thereby detecting the response of the compound to cell proliferation and differentiation. The agonist concentration at which the increased signal arrived at the highest level was Emax, and the concentration of the compound at which the increased signal arrived at 50% of the signal of Emax was EC50. The activity of the compound was determinable by EC50, and the smaller the EC50, the higher the activity of the compound.
Mouse […] BAF3 stably expressing human TPOR were cultured in 1640 medium containing 10% FBS. On the day of the assay, the cells were counted and seeded in a 96-well plate at 1×10^4 cells/50 μL. 50 μL of different concentrations of the tested compound were added to the wells to a final concentration of 10000 nM, 3000 nM, 300 nM, 30 nM, 3 nM, 0.3 nM, 0.03 nM, 0.003 nM, 0.0003 nM, and the final concentration of DMSO was 1%. After the cells were cultured with the compound for 24 h at 37° C. in a 5% CO2 incubator, 10 μL of detection reagent (Promega, Cell Titer 96® Aqueous One Solution) was added. After mixing, the resulting mixture was incubated for 3 h in the incubator. The OD 490 was detected using a multifunctional automatic microplate reader, and the EC50 was fitted using GraphPad Prism 5 software.

hERG potassium channel = hERG potassium channel (Homo sapiens, UniProt Q12809); test: hERG test, electrophysiological manual patch clamp; assay type: cell-based; conditions: for hERG potassium channel inhibition (judgement in words): conclusion from Table 2; for IC50: manual patch clamp, IC50 >10 μM judged as no inhibitory effect on hERG
hERG potassium channel, sequence (Q12809 whole entry): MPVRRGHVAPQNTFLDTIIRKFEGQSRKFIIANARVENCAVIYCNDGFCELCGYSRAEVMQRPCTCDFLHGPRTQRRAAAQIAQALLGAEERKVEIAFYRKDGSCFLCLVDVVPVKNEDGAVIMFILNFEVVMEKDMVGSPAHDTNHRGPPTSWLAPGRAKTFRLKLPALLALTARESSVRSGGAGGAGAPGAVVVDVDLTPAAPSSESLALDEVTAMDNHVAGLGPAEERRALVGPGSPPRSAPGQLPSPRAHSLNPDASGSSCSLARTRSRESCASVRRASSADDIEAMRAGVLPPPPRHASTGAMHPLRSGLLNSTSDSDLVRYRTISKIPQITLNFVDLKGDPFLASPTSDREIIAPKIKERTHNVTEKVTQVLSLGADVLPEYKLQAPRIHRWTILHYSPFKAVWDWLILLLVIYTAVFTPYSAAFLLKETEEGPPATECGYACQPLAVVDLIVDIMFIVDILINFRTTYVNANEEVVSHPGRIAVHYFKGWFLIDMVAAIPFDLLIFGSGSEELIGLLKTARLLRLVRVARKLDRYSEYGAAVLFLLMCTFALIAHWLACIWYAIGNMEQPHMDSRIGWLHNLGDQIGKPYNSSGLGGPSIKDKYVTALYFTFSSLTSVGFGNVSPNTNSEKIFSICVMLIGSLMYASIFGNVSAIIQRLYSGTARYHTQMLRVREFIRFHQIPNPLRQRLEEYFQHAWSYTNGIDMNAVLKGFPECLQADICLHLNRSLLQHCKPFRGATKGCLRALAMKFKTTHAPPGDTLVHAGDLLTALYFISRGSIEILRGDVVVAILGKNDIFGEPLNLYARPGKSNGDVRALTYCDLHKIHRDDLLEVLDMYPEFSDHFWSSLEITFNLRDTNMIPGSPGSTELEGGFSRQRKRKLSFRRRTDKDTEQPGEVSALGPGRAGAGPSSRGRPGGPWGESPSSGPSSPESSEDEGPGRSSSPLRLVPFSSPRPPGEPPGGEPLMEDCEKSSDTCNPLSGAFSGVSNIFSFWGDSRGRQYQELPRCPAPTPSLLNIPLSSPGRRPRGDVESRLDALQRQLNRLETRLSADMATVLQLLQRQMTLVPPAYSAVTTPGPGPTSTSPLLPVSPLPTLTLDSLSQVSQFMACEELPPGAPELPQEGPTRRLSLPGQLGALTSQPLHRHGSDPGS
Excerpt: In cardiomyocytes, the potassium channel encoded by hERG (human Ether-a-go-go Related Gene) mediated the delayed rectifier potassium current (lKr). The IKr inhibition was the most important mechanism for drug-induced QT prolongation and induction of arrhythmia.
The electrophysiological manual patch clamp was used to detect the effect of the tested compound on the hERG potassium channel.

| SMILES | EC50 (human TPOR) [nM] | hERG potassium channel inhibition (judgement in words) (hERG potassium channel) | IC50 (hERG potassium channel) [nM] |
| --- | --- | --- | --- |
| O=C(Nc1nc(-c2cc(Cl)cs2)c(N2CC3CCN(C4C[C@H]5CC[C@@H]4C5)C3C2)s1)c1cnc(N2CCC(C(=O)O)CC2)c(Cl)c1 (stereo in doubt) [Example 9, 1-[3-chloro-5-((4-(4-chlorothiophen-2-yl)-5-(1-(bicyclo[2.2.1]hept-2-yl)-hexahydropyrrolo[3,4-b]pyrrol-5(1H)-yl)thiazol-2-yl)carbamoyl)pyridin-2-yl]piperidine-4-carboxylic acid] | 0.21 |  |  |
| O=C(Nc1nc(-c2cc(Cl)cs2)c(N2CC3CCN(C4CCC4)C3C2)s1)c1cnc(N2CCC(C(=O)O)CC2)c(Cl)c1 (centres unmarked) [Example 2, 1-(3-chloro-5-((4-(4-chlorothiophen-2-yl)-5-(1-cyclobutyl-hexahydropyrrolo[3,4-b]-pyrrol-5(1H)-yl)-thiazol-2-yl)-carbamoyl)-pyridin-2-yl)-piperidine-4-carboxylic acid] | 0.21 |  |  |
| O=C(Nc1nc(-c2cc(Cl)cs2)c(N2CC3CCN(C4CCCCC4)C3C2)s1)c1cnc(N2CCC(C(=O)O)CC2)c(Cl)c1 (centres unmarked) [Example 5, 1-(3-chloro-5-((4-(4-chlorothiophen-2-yl)-5-(1-cyclohexyl-hexahydropyrrolo[3,4-b]pyrrol-5(1H)-yl)-thiazol-2-yl)-carbamoyl)-pyridin-2-yl)-piperidine-4-carboxylic acid] | 0.08 |  |  |
| O=C(Nc1nc(-c2cc(Cl)cs2)c(N2CC3CCN(C4CCCCCC4)C3C2)s1)c1cnc(N2CCC(C(=O)O)CC2)c(Cl)c1 (centres unmarked) [Example 8, 1-(3-chloro-5-((4-(4-chlorothiophen-2-yl)-5-(1-cycloheptyl-hexahydropyrrolo[3,4-b]pyrrol-5(1H)-yl)-thiazol-2-yl)-carbamoyl)-pyridin-2-yl)-piperidine-4-carboxylic acid] | 1.11 |  |  |
| O=C(Nc1nc(-c2cc(Cl)cs2)c(N2CC3CCN(C4[C@H]5C[C@@H]6C[C@@H](C[C@H]4C6)C5)C3C2)s1)c1cnc(N2CCC(C(=O)O)CC2)c(Cl)c1 (stereo partly drawn) [Example 10, 1-(3-chloro-5-((4-(4-chlorothiophen-2-yl)-5-(1-(1R,3R,5R,7R)-adamantanyl-hexahydropyrrolo[3,4-b]pyrrol-5(1H)-yl)-thiazol-2-yl)carbamoyl)-pyridin-2-yl)-piperidine-4-carboxylic acid] | 0.1 |  |  |
| O=C(Nc1nc(-c2cc(Cl)cs2)c(N2CC3CCC2CN3C2CCCCC2)s1)c1cnc(N2CCC(C(=O)O)CC2)c(Cl)c1 (centres unmarked) [Example 29, 3′-chloro-5′-(4-(4-chlorothiophen-2-yl)-5-(5-cyclohexyl-2,5-diazabicyclo[2.2.2]octan-2-yl)-thiazol-2-carbamoyl)-3,4,5,6-tetrahydro-2H-[1,2′]bipyridine-4-carboxylic acid] | 0.89 |  |  |
| C/C(=C\c1c(Cl)cc(C(=O)Nc2nc(-c3cccc(C(F)(F)F)c3)c(N3CC4CCN(C5CCCCC5)C4C3)s2)cc1Cl)C(=O)O (centres unmarked) [Example 35, (E)-3-(2,6-dichloro-4-(5-(1-cyclohexyl-hexahydropyrrolo[3,4-b]pyrrol-5-yl)-4-(3-trifluoromethylphenyl)-thiazol-2-carbamoyl)-phenyl)-2-methyl-acrylic acid] | 0.57 |  |  |
| C/C(=C\c1c(Cl)cc(C(=O)Nc2nc(-c3cc(Cl)cs3)c(N3CC4CCN(C5CCCCC5)C4C3)s2)cc1Cl)C(=O)O (centres unmarked) [Example 36, (E)-3-(2,6-dichloro-4-((4-(4-chlorothiophen-2-yl)-5-(1-cyclohexyl-hexahydropyrrolo[3,4-b]pyrrol-5(1H)-yl)-thiazol-2-yl)-carbamoyl)-phenyl)-2-methylacrylic acid] | 0.1 |  |  |
| C/C(=C\c1c(Cl)cc(C(=O)Nc2nc(-c3cc(Cl)cs3)c(N3CC4CCN(C5CCC5)C4C3)s2)cc1Cl)C(=O)O (centres unmarked) [Example 37, (E)-3-(2,6-dichloro-4-((4-(4-chlorothiophen-2-yl)-5-(1-cyclobutyl-hexahydropyrrolo[3,4-b]pyrrol-5(1H)-yl)-thiazol-2-yl)-carbamoyl)-phenyl)-2-methylacrylic acid] | 0.34 |  |  |
| C/C(=C\c1c(Cl)cc(C(=O)Nc2nc(-c3cc(Cl)cs3)c(N3CC4CCN(C5CC(F)(F)C5)C4C3)s2)cc1Cl)C(=O)O (centres unmarked) [Example 38, (E)-3-(4-((5-(1-(3,3-difluorocyclobutyl)-hexahydropyrrolo[3,4-b]pyrrol-5(1H)-yl)-4-(4-chlorothiophen-2-yl)-thiazol-2-yl)-carbamoyl)-2,6-dichlorophenyl)-2-methylacrylic acid] | 0.43 |  |  |
| C/C(=C\c1c(Cl)cc(C(=O)Nc2nc(-c3cc(Cl)cs3)c(N3CC4CCN(C5CCCC5)C4C3)s2)cc1Cl)C(=O)O (centres unmarked) [Example 40, (E)-3-(2,6-dichloro-4-((4-(4-chlorothiophen-2-yl)-5-(1-cyclopentyl-hexahydropyrrolo[3,4-b]pyrrol-5(1H)-yl)-thiazol-2-yl)-carbamoyl)-phenyl)-2-methylacrylic acid] | 0.07 |  |  |
| C/C(=C\c1c(Cl)cc(C(=O)Nc2nc(-c3cc(Cl)cs3)c(N3CC4CCN(C5CCCCCC5)C4C3)s2)cc1Cl)C(=O)O (centres unmarked) [Example 44, (E)-3-(4-((5-(1-cycloheptyl-hexahydropyrrolo[3,4-b]pyrrol-5(1H)-yl)-4-(4-chlorothiophen-2-yl)-thiazol-2-yl)-carbamoyl)-2,6-dichlorophenyl)-2-methylacrylic acid] | 0.13 |  |  |
| C/C(=C\c1c(Cl)cc(C(=O)Nc2nc(-c3cc(Cl)cs3)c(N3CC4CCN(C5C[C@H]6CC[C@@H]5C6)C4C3)s2)cc1Cl)C(=O)O (some centres unmarked) [Example 45, (E)-3-(4-((5-(1-(bicyclo[2.2.1]hept-2-yl)-hexahydropyrrolo[3,4-b]pyrrol-5(1H)-yl)-4-(4-chlorothiophen-2-yl)-thiazol-2-yl)-carbamoyl)-2,6-dichlorophenyl)-2-methylacrylic acid] | 0.59 |  |  |
| C/C(=C\c1c(Cl)cc(C(=O)Nc2nc(-c3cc(Cl)cs3)c(N3CC4CCN(C5[C@H]6C[C@@H]7C[C@@H](C[C@H]5C7)C6)C4C3)s2)cc1Cl)C(=O)O (stereo partly drawn) [Example 46, (E)-3-(4-((5-(1-((1R,3R,5R,7R)-adamantan-2-yl)hexahydropyrrolo[3,4-b]pyrrol-5(1H)-yl)-4-(4-chlorothiophen-2-yl)thiazol-2-yl)carbamoyl)-2,6-dichlorophenyl)-2-methylacrylic acid] | 0.08 |  |  |
| C/C(=C\c1c(Cl)cc(C(=O)Nc2nc(-c3cc(Cl)cs3)c(N3CCC4C(CCN4C4CCCCC4)C3)s2)cc1Cl)C(=O)O (centres unmarked) [Example 48] | 0.6 |  |  |
| C/C(=C\c1c(Cl)cc(C(=O)Nc2nc(-c3cc(Cl)cs3)c(N3C[C@H]4CCN(C5[C@H]6C[C@@H]7C[C@@H](C[C@H]5C7)C6)[C@H]4C3)s2)cc1Cl)C(=O)O (stereo partly drawn) [Example 51, (E)-3-(4-((5-((3aR,6aR)-1-((1R,3R,5R,7R)-adamantan-2-yl)hexahydropyrrolo[3,4-b]pyrrol-5(1H)-yl)-4-(4-chlorothiophen-2-yl)thiazol-2-yl)carbamoyl)-2,6-dichlorophenyl)-2-methylacrylic acid] | 0.05 | no hERG inhibition | > 30000 |
| C/C(=C\c1c(Cl)cc(C(=O)Nc2nc(-c3cc(Cl)cs3)c(N3C[C@@H]4CCN(C5[C@H]6C[C@@H]7C[C@@H](C[C@H]5C7)C6)[C@@H]4C3)s2)cc1Cl)C(=O)O (stereo partly drawn) [Example 52, (E)-3-(4-((5-((3aS,6aS)-1-((1S,3S,5S,7S)-adamantan-2-yl)hexahydropyrrolo[3,4-b]pyrrol-5(1H)-yl)-4-(4-chlorothiophen-2-yl)thiazol-2-yl)carbamoyl)-2,6-dichlorophenyl)-2-methylacrylic acid] | 0.13 |  | 7900 |
| CCCCCCO[C@@H](C)c1cccc(-c2csc(NC(=O)c3cc(Cl)c(/C=C(\C)C(=O)O)c(Cl)c3)n2)c1OC [Lusutrombopag, reference compound] | 1.93 | significant cardiac hERG potassium channel inhibition | 2370 |
